Consider eleven compounds from patent publication US9085555B2, “Complement pathway modulators and uses thereof” (priority 2011, dated 2015).

This experiment deals with Factor D (Homo sapiens (Human), UniProt P00746). Put plainly: biochemical. Format: biochemical. The note with it: read-out: IC50.
Sequence of Factor D (P00746 26-253): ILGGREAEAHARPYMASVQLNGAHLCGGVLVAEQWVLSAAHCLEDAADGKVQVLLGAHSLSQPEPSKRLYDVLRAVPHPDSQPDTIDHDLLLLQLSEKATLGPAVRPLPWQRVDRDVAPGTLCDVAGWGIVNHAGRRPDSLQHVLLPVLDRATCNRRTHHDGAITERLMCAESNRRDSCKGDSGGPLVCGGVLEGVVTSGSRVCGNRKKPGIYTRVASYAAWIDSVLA
As for `NC(=O)n1cc(NC(=O)N2C[C@H](F)C[C@H]2C(=O)NCc2ccncc2F)c2ccccc21` [Example 230, (2S,4R)-4-Fluoro-pyrrolidine-1,2-dicarboxylic acid 1-[(1-carbamoyl-1H-indol-3-yl)-amide] 2-[(3-fluoro-pyridin-4-ylmethyl)-amide]], the IC50 (as a rule, the concentration needed to halve the response being measured) is 2550 nM. The same measure for `C[C@@H](NC(=O)[C@@H]1C[C@H]2C[C@H]2N1C(=O)Cn1nc(C(N)=O)c2cc[n+]([O-])cc21)c1cccc(Cl)c1F` [Example 706, 3-Carbamoyl-1-(2-((1R,3S,5R)-3-((R)-1-(3-chloro-2-fluorophenyl)ethyl-carbamoyl)-2-azabicyclo[3.1.0]hexan-2-yl)-2-oxoethyl)-1H-pyrazolo[3,4-c]pyridine 6-oxide]: 45 nM; for `Cn1nc(-c2ccccc2)cc1NC(=O)[C@@H]1CCCN1C(=O)Nc1cn(C(N)=O)c2ccccc12` [Example 199, (S)-Pyrrolidine-1,2-dicarboxylic acid 1-[(1-carbamoyl-1H-indol-3-yl)-amide] 2-[(2-methyl-5-phenyl-2H-pyrazol-3-yl)-amide]]: 8650 nM. The same measure for `NC(=O)c1nn(CC(=O)N2[C@@H]3C[C@@H]3C[C@H]2C(=O)Nc2cccc(-c3ncccc3F)c2F)c2ccccc12` [Example 686, 1-(2-{(1R,3S,5R)-3-[2-Fluoro-3-(3-fluoro-pyridin-2-yl)-phenylcarbamoyl]-2-aza-bicyclo[3.1.0]hex-2-yl}-2-oxo-ethyl)-1H-indazole-3-carboxylic acid amide]: 30 nM.

As for `CO[C@@H]1CCN(C(=O)Nc2cn(C(N)=O)c3ccccc23)[C@@H]1C(=O)NCc1cccc(Cl)c1F` [Example 186, (2S,3R)-3-Methoxy-pyrrolidine-1,2-dicarboxylic acid 1-[(1-carbamoyl-1H-indol-3-yl)-amide] 2-(3-chloro-2-fluoro-benzylamide)], the IC50 stood at 20 nM.

Regarding `NC(=O)n1cc(NC(=O)N2[C@@H]3C[C@@H]3C[C@H]2C(=O)Nc2cncc(Br)c2)c2ccccc21` [Example 171, (1R,3S,5R)-2-Aza-bicyclo[3.1.0]hexane-2,3-dicarboxylic acid 2-[(1-carbamoyl-1H-indol-3-yl)-amide] 3-[(5-bromo-pyridin-3-yl)-amide]], the IC50 was determined as 200 nM. As to `NC(=O)n1cc(CC(=O)N2CCC[C@H]2C(=O)Nc2cccc(OC(F)(F)F)c2)c2ccccc21` [Example 441, 3-{2-[(S)-2-(3-trifluoromethoxy-phenylcarbamoyl)-pyrrolidin-1-yl]-2-oxo-ethyl}-indole-1-carboxylic acid amide], the IC50 was found to be 5620 nM. The same measure for `CCc1ccc2c(NC(=O)N3CCC[C@H]3C(=O)Nc3cccc(OC(F)(F)F)c3)cn(C(N)=O)c2c1` [Example 288, (S)-Pyrrolidine-1,2-dicarboxylic acid 1-[(1-carbamoyl-6-ethyl-1H-indol-3-yl)-amide] 2-[(3-trifluoromethoxy-phenyl)-amide]]: 1100 nM. The result for `CC(=O)c1cn(CC(=O)N2[C@@H]3C[C@@H]3C[C@H]2C(=O)N[C@H](CCO)c2cccc(Cl)c2F)c2ccccc12` [Example 504, (1R,3S,5R)-2-[2-(3-Acetyl-indol-1-yl)-acetyl]-2-aza bicyclo[3.1.0]hexane-3-carboxylic acid [(R)-1-(3-chloro-2-fluoro-phenyl)-3-hydroxy-propyl]-amide] reads 57 nM. Take `CN1CCN(C(=O)c2cc(Cl)c(F)c(CNC(=O)[C@@H]3C[C@@H](F)CN3C(=O)Nc3cn(C(N)=O)c4ccccc34)c2)CC1` [Example 322, (2S,4R)-4-Fluoro-pyrrolidine-1,2-dicarboxylic acid 1-[(1-carbamoyl-1H-indol-3-yl)-amide] 2-[3-chloro-2-fluoro-5-(4-methyl-piperazine-1-carbonyl)-benzylamide]]: the IC50 amounted to 348 nM. For `O=C(CO)c1cn(CC(=O)N2C[C@H](F)C[C@H]2C(=O)NCc2cccc(Br)c2F)c2ccccc12` [Example 564, (2S,4R)-4-Fluoro-1-{2-[3-(2-hydroxy-acetyl)-indol-1-yl]-acetyl}-pyrrolidine-2-carboxylic acid 3-bromo-2-fluoro-benzylamide], the half-inhibitory concentration (IC50) was 13 nM.
